US20180111893A1, “POLYCATIONIC AMPHIPHILES AND POLYMERS THEREOF AS ANTIMICROBIAL AGENTS AND METHODS USING SAME” (Temple University-Of The Commonwealth System of Higher …, priority 2015, published 2018)

Tested on: CA-MRSA strain
Experiment: Reactivation assay (sub-MIC co-dosing)
Assay type: cell-based, Staphylococcus aureus
Settings: sub-MIC concentrations of TET-14,0,0, varying concentrations of triscationic variant
Description: It was hypothesized that by using a reactivation assay (essentially the inverse of a potentiation assay), the role QacR plays in monoQAC resistance could be better understood. […] Other possible hypotheses include that QacR may be activated by our monoQACs but that QacA cannot efflux the trisQACs or that the resistance mechanism implicated for TET-14,0,0 may be orthogonal to the Qac system.

## CCCCCCCCCCCCCC[N+](CC)(CC)c1ccc(N(c2ccc([N+](C)(CC)CC)cc2)c2ccc([N+](C)(CC)CC)cc2)cc1 [TET-14,1,1]
  modification of MIC on co-dosing with sub-MIC TET-14,0,0: did not result in any significant modification
